Test results reported in patent US20160367557A1, “HE[…] ACID DERIVATIVES WHICH ARE USEFUL IN THE TREATMENT, AMELIORATION OR PREVENTION OF A VIRAL DISEASE” (Savira pharmaceuticals GmbH, priority 2012, published 2016).

Tests used:
[1] = system: influenza A virus (IAV) A/Aichi/2/68 (H3N2); assay: Cytopathic effect (CPE) assay; assay type: cell-based; conditions: MDCK cells, 48 hrs
MDCK cells = assay: Cytotoxicity in uninfected cells of the CPE assay; assay type: cell-based, canine; conditions: at 50 μM
Method: After removal of the culture medium and one washing step with PBS, virus and compound were added together to the cells. In the wells used for cytotoxicity determination (i.e. in the absence of viral infection), no virus suspension was added. Instead, infection medium was added. Each treatment was conducted in two replicates. After incubation at 37° C., 5% CO2 for 48 hrs, each well was observed microscopically for apparent cytotoxicity, precipitate formation, or other notable abnormalities. Then, cell viability was determined using CellTiter-Glo luminescent cell viability assay (Promega). The supernatant was removed carefully and 65 μl of the reconstituted reagent were added to each well and incubated with gentle shaking for 15 min at room temperature. Then, 60 μl of the solution was transferred to an opaque plate and luminescence (RLU) was measured using Synergy HT plate reader (Biotek).
Relative cell viability values of uninfected-treated versus uninfected-untreated cells were used to evaluate cytotoxicity of the compounds. Substances with a relative viability below 80% at the tested concentration were regarded as cytotoxic and retested at lower concentrations.

[2] = molecular target: T1, influenza A virus (IAV) PA-Nter fragment (amino acids 1-209) (Influenza A virus, UniProt P31343); assay: FRET endonuclease activity assay; assay type: biochemical; conditions: for IC50: calculated from initial reaction velocities (v0)
T1 construct: PA-Nter fragment (amino acids 1-209); made in house

O=C(O)c1cn(Cc2ccccc2-c2ccccc2)c2sc(NC3CCCC3)nc2c1=O
CPE activity in words [1]: inactive
Cytotoxicity (relative viability below 80% regarded as cytotoxic) (MDCK cells): toxic

O=C(O)c1c[nH]c2ccnn2c1=O [drawing 208]
inhibition at 5 µM ([2]; 20 min, @ 5 μM, read-out: FRET % reduction of v0): 26%

CCOC(=O)c1cn(Cc2ccccc2-c2ccccc2)c2sc(NS(=O)(=O)c3ccc(Cl)cc3F)nc2c1=O
IC50 ([1]; Influenza A virus, H3N2): 39 µM
FRET activity in words [2]: inactive

Nc1cc2n(C(=O)C3(c4ccccc4)CCCC3)cc(C(=O)O)c(=O)n2n1 [drawing 232]
FRET activity in words [2]: inactive

O=C(O)c1cn(Cc2ccccc2-c2ccccc2)c2nc(NC3CCCC3)sc2c1=O
FRET activity in words [2]: inactive

O=C(O)c1cn(Cc2ccccc2-c2ccccc2)c2nc(NCc3ccccc3)sc2c1=O
FRET activity in words [2]: inactive

O=C(O)c1cn(Cc2ccccc2-c2ccccc2)c2sc(NS(=O)(=O)c3ccc(Cl)cc3)nc2c1=O
IC50 ([1]; Influenza A virus, H3N2): 18 µM
IC50 [2]: 2.2 µM

O=CNc1nc2c(=O)c(C(=O)O)cn(Cc3ccccc3-c3ccccc3)c2s1
CPE activity in words [1]: inactive
IC50 [2]: 47 µM

CCOC(=O)c1cn(Cc2ccccc2-c2ccccc2)c2sc(SC)nc2c1=S
inhibition at 50 µM ([1]; Influenza A virus, H3N2, @ 50 μM, read-out: CPE % reduction): 35%
FRET activity in words [2]: inactive

Cc1[nH]c2ncnn2c(=O)c1CC(=O)O
FRET activity in words [2]: inactive

CNC(=O)c1cn(Cc2ccccc2-c2ccccc2)c2sc(NCc3ccccc3)nc2c1=O
FRET activity in words [2]: inactive

CSC1=NC2C(=O)C(C(=O)O)=CN(Cc3ccccc3-c3ccccc3)C2S1 (stereo not drawn)
CPE activity in words [1]: inactive
Cytotoxicity (relative viability below 80% regarded as cytotoxic) (MDCK cells): Toxic

CCOC(=O)c1cn(Cc2ccccc2)c2cc(C3CCCC3)nn2c1=O
melting point: 148 to 150 °C

CCOC(=O)c1cn(CCc2ccc(Cl)cc2)c2cc(C3CC3)nn2c1=O
melting point: 190 to 195 °C

O=C(O)c1cn(Cc2ccccc2-c2ccccc2)c2sc(N3CCCCC3)nc2c1=O
FRET activity in words [2]: inactive

CC(C)c1cc2n(CCc3ccccc3)cc(C(=O)O)c(=O)n2n1
melting point: 220 to 225 °C

CCOC(=O)c1cn(CCc2cccc(Cl)c2)c2cc(C3CC3)nn2c1=O
melting point: 160 to 165 °C

O=C(O)c1cn(CCc2ccccc2)c2cc(C3CCCC3)nn2c1=O [drawing 219]
CPE activity in words [1]: inactive
FRET % reduction of v0 ([2]; @ 25 μM): 26% @ 25 μM

CCOC(=O)Cc1c[nH]c2cc(C(F)(F)F)nn2c1=O
melting point: 290 to 293 °C

CCOC(=O)c1cn(CCc2ccccc2)c2cc(C3CCCC3)nn2c1=O
melting point: 162 to 164 °C
